This note sets out measurements from patent US7504403B2, “Substituted heterocyclic compounds and methods of use” (Amgen Inc., priority 2004, dated 2009).

This assay deals with LPS induced TNF release. The experiment in a line: Lipopolysaccharide-Activated THP1 Cell TNF Production Assay. The assay is classed as cell-based. Particulars: Homo sapiens, THP-1. The protocol: Lipopolysaccharide-Activated THP1 Cell TNF Production Assay
THP1 cells are resuspended in fresh THP1 media (RPMI 1640, 10% heat-inactivated FBS, 1×PGS, 1×NEAA, plus 30 μM βME) at a concentration of 1E6/mL. One hundred microliters of cells per well are plated in a polystyrene 96-well tissue culture. One microgram per mL of bacterial LPS is prepared in THP1 media and is transferred to the wells. Test compounds are dissolved in 100% DMSO and are serially diluted 3 fold in a polypropylene 96-well microtiter plate (drug plate). HI control and LO control wells contain only DMSO. One microliter of test compound from the drug plate followed by 10 μL of LPS are transferred to the cell plate. The treated cells are induced to synthesize and secrete TNF-α at 37° C. for 3 h. Forty microliters of conditioned media are transferred to a 96-well polypropylene plate containing 110 μL of ECL buffer (50 mM Tris-HCl pH 8.0, 100 mM NaCl, 0.05% Tween 20, 0.05% NaN3 and 1%FBS) supplemented with 0.44 nM MAB610 monoclonal Ab (R&D Systems), 0.34 nM ruthenylated AF210NA polyclonal Ab (R&D Systems) and 44 μg/mL sheep anti-mouse M280 Dynabeads (Dynal). After a 2 h incubation at room temperature with shaking, the reaction is read on the ECL M8 Instrument (IGEN Inc.). A low voltage is applied to the ruthenylated TNF-α immune complexes, which in the presence of TPA (the active component in Origlo), results in a cyclical redox reaction generating light at […]. The amount of secreted TNF-α in the presence of compound compared with that in the presence of DMSO vehicle alone (HI control) is calculated using the formula: % control (POC)=(cpd−average LO)/(average HI−average LO)*100. Data (consisting of POC and inhibitor concentration in μM) is fitted to a 4-parameter equation (y=A+((B−A)/(1+((x/C)^D))), where A is the minimum y (POC) value, B is the maximum y (POC), C is the x (cpd concentration) at the point of inflection and D is the slope factor) using a Levenburg-Marquardt non-linear regression algorithm.

As to `COc1ccc([C@H](C)Nc2nccc(N3CCCn4c3cc(-c3ccccc3)cc4=O)n2)cc1` [Example 80, 1-{2-[(1S)-(4-Methoxy-phenyl)-ethylamino]-pyrimidin-4-yl}-8-phenyl-1,2,3,4-tetrahydro-pyrido[1,2-a]pyrimidin-6-one], the IC50 was ≤ 20 µM.

As to `C[C@H](Nc1nccc(N2CCCn3c2cc(-c2ccccc2)cc3=O)n1)c1cccc(Br)c1` [Example 81, 1-{2-(S)-[1-(3-Bromo-phenyl)-ethylamino]-pyrimidin-4-yl}-8-phenyl-1,2,3,4-tetrahydro-pyrido[1,2-a]pyrimidin-6-one], the IC50 is ≤ 20 µM.

For `C[C@H](Nc1nccc(N2CCCn3c2cc(-c2ccccc2)cc3=O)n1)c1cccc(N2CCNCC2)c1` [Example 82, 8-Phenyl-1-{2-(S)-[1-(3-piperazin-1-yl-phenyl) -ethylamino]-pyrimidin-4-yl}-1,2,3,4-tetrahydro-pyrido[1,2-a]pyrimidin-6-one], the concentration for half-maximal inhibition (IC50) was ≤ 20 µM.

Turning to `CC(Cc1cccc(CO)c1)Nc1nccc(N2CCCn3c2cc(-c2ccccc2)cc3=O)n1` (stereo not shown) [Example 83, 1-{2-[2-(3-Hydroxymethyl-phenyl)-1-methyl-ethylamino]-pyrimidin-4-yl}-8-phenyl-1,2,3,4-tetrahydro-pyrido[1,2-a]pyrimidin-6-one], the IC50 is ≤ 20 µM.

Consider `CC(Cc1cccc(CN)c1)Nc1nccc(N2CCCn3c2cc(-c2ccccc2)cc3=O)n1` (stereo not shown) [Example 84, 1-{2-[2-(3-Aminomethyl-phenyl)-1-methyl-ethylamino]-pyrimidin-4-yl}-8-phenyl-1,2,3,4-tetrahydro-pyrido[1,2-a]pyrimidin-6-one], for which the IC50 is ≤ 20 µM.

Consider `O=c1cc(-c2ccccc2)cc2n1CCCN2c1cc(NCCc2ccccc2)ncn1` [Example 85, 1-(6-Phenethylamino-pyrimidin-4-yl)-8-phenyl-1,2,3,4-tetrahydro-pyrido[1,2-a]pyrimidin-6-one], for which the IC50 was ≤ 20 µM.

Turning to `O=c1cc(-c2ccccc2)cc2n1CCCN2c1cc(NCCc2ccccc2Cl)ncn1` [Example 86, 1-{6-[2-(2-Chloro-phenyl)-ethylamino]-pyrimidin-4-yl}-8-phenyl-1,2,3,4-tetrahydro-pyrido[1,2-a]pyrimidin-6-one], the IC50 was ≤ 20 µM.

As for `O=c1cc(-c2ccccc2)cc2n1CCN2c1ccnc(NCCc2ccccc2)n1` [Example 87, 1-(2-Phenethylamino-pyrimidin-4-yl)-7-phenyl-2,3-dihydro-1H-imidazo[1,2-a]pyridin-5-one], the IC50 is ≤ 20 µM.

In the case of `CC(Cc1cccc(CO)c1)Nc1nccc(N2CCn3c2cc(-c2ccccc2)cc3=O)n1` (stereo not shown) [Example 88, 1-{2-[2-(3-Hydroxymethyl-phenyl)-1-methyl-ethylamino]-pyrimidin-4-yl}-7-phenyl-2,3-dihydro-1H-imidazo[1,2-a]pyridin-5-one], the IC50 was ≤ 20 µM.

Consider `O=c1cc(-c2ccccc2)cc2n1CCN2c1cncc(NCCc2ccccc2)n1` [Example 89, 1-(6-Phenethylamino-pyrazin-2-yl)-7-phenyl-2,3-dihydro-1H-imidazo[1,2-a]pyridin-5-one], for which the IC50 is ≤ 20 µM.
